Experiments:
[1] = tested on: primary mouse hepatocyte culture; assay: toxicity on primary mouse hepatocyte culture; type: cell-based; details: tested at different doses (6, 25-100 μg/ml)
[2] = tested on: malaria liver stage (LS) parasites; assay: effect on sporozoite invasion and malaria liver stage development in hepatocytes; type: cell-based; details: compounds added at sporozoite invasion and during liver stage development; schizonts counted in 48 hours cultures; FIG. 5

CN1CNC(=O)NC(Cc2ccccc2)C1=O (stereo not shown) [4b]
toxicity on primary mouse hepatocyte culture [1]: non toxic | effect on liver parasites / LS development (schizont number) [2]: inhibit significantly and repeatedly

CN1CN(Cc2ccccc2)C(=O)NC(Cc2ccccc2)C1=O (stereo not shown) [8a]
toxicity on primary mouse hepatocyte culture [1]: non toxic | effect on liver parasites / LS development (schizont number) [2]: inhibit significantly and repeatedly

Source: patent publication US7777030B2, “Compositions and methods for the treatment and prevention of disease” (Centre National de la Recherge Scientifique (CNRS), priority 2005, dated 2010)
